Patent US20230126447A1, “OCULAR DRUG DEPOT FOR COMPLEMENT-MEDIATED DISORDERS” (priority 2020, published 2023)
Where two headings read alike, the source gives them in different places.

Test: Ocular tissue and plasma pharmacokinetics, 15 mg/kg single and BID oral, Dutch Belted rabbits (Example 3/5)
Assay type: in vivo
Description: Study design including group designation and dose levels are outlined in Table 4. […] Fifteen Dutch Belted and 5 New Zealand White rabbits were used as un-dosed controls. […] The dose volume was 5 mL/kg/dose for all groups. Safety was assessed with toxicological and ophthalmic examinations including slit lamp biomicroscopy, indirect ophthalmoscopy, rebound tonometry, and ultrasonic corneal pachymetry.
Analyst® software (Version 1.6.2) was used to capture the LC-MS/MS data and integrate the peak areas. Calibration standards and QCs were prepared in a blank solution of 75%:25% acetonitrile:water (v:v), ranging from 10 ng/mL to 10,000 ng/mL. Matrix matched standard and QC samples were prepared by mixing 2 μL of standard or QC sample above with 18 μL of appropriate ocular tissue or plasma. The final calibration standards ranged from 1 ng/mL to 1000 ng/mL. All plasma, retina, choroid-RPE, optic nerve, and vitreous humor samples were analyzed in a single run. Iris-ciliary body samples were analyzed in two runs due to a need for sample dilution. […] Dilution QCs were prepared at 5000 ng/mL where appropriate. Two sets of standards were used to bracket the analytical run at the beginning and end of the run. Three sets of QCs were included the analytical runs. All concentrations in ocular matrices are reported as ng/g based on the assumed density of 1 g/mL.
1, 6, 24, 96, 168, and 240 hours post-dose on Day 15, with the eyes collected at the same time as blood sampling. A single blood sample was taken from Groups 4 and 5 at sacrifice. Plasma, vitreous humor (VH), retina, choroid-retina pigmented epithelium (Choroid-RPE), optic nerve (ON), and iris-ciliary body (I-CB) were analyzed by LC-MS/MS to quantify test article concentrations. The lower limit of quantitation (LLOQ) in plasma and vitreous humor was 1.0 ng/mL. The LLOQ was 6.0 ng/g in retina, Choroid-RPE, and I-CB and the optic nerve LLOQ was 15 ng/g, assuming tissue density of 1 g/mL where relevant.
Study design including group designation and dose levels are outlined in Table 18.

[1] = Dutch Belted, rabbit, iris-ciliary body, po, 15 mg/kg, Iris-Ciliary Body, DB rabbit, 15 mg/kg BID, Day 15
[2] = Dutch Belted, rabbit, iris-ciliary body, po, 15 mg/kg, Iris-Ciliary Body, DB rabbit, 15 mg/kg single dose, Day 1
[3] = Dutch Belted, rabbit, vitreous humor, po, 15 mg/kg, Vitreous Humor, DB rabbit, 15 mg/kg BID, Day 15
[4] = Dutch Belted, rabbit, vitreous humor, po, 15 mg/kg, Vitreous Humor, DB rabbit, 15 mg/kg single dose, Day 1
[5] = plasma, DB rabbit, 15 mg/kg BID, Day 15
[6] = plasma, DB rabbit, 15 mg/kg single dose, Day 1
[7] = retina, DB rabbit, 15 mg/kg BID, Day 15
[8] = retina, DB rabbit, 15 mg/kg single dose, Day 1

CC(=O)c1nn(CC(=O)N2C[C@H](F)C[C@H]2C(=O)Nc2cccc(Br)n2)c2ccc(-c3cnc(C)nc3)cc12 [Compound 1, (2S,4R)-1-(2-(3-Acetyl-5-(2-methylpyrimidin-5-yl)-1H-indazol-1-yl)acetyl)-N-(6-bromopyridin-2-yl)-4-fluoropyrrolidine-2-carboxamide]
concentration at 0 h (Dutch Belted, rabbit, iris-ciliary body, po, 15 mg/kg, DB rabbit, 15 mg/kg BID oral, Day 15, 0 h, read-out: Mean Iris-Ciliary Body concentration): 2900 ng/g
concentration at 1 h (Dutch Belted, rabbit, iris-ciliary body, po, 15 mg/kg, DB rabbit, 15 mg/kg BID oral, Day 15, 1 h, read-out: Mean Iris-Ciliary Body concentration): 4920 ng/g
concentration at 6 h (Dutch Belted, rabbit, iris-ciliary body, po, 15 mg/kg, DB rabbit, 15 mg/kg BID oral, Day 15, 6 h, read-out: Mean Iris-Ciliary Body concentration): 3510 ng/g
concentration at 24 h (Dutch Belted, rabbit, iris-ciliary body, po, 15 mg/kg, DB rabbit, 15 mg/kg BID oral, Day 15, 24 h, read-out: Mean Iris-Ciliary Body concentration): 1640 ng/g
concentration at 96 h (Dutch Belted, rabbit, iris-ciliary body, po, 15 mg/kg, DB rabbit, 15 mg/kg BID oral, Day 15, 96 h, read-out: Mean Iris-Ciliary Body concentration): 1010 ng/g
concentration at 168 h (Dutch Belted, rabbit, iris-ciliary body, po, 15 mg/kg, DB rabbit, 15 mg/kg BID oral, Day 15, 168 h, read-out: Mean Iris-Ciliary Body concentration): 612 ng/g
concentration at 240 h (Dutch Belted, rabbit, iris-ciliary body, po, 15 mg/kg, DB rabbit, 15 mg/kg BID oral, Day 15, 240 h, read-out: Mean Iris-Ciliary Body concentration): 408 ng/g
concentration at 1 h (Dutch Belted, rabbit, iris-ciliary body, po, 15 mg/kg, DB rabbit, 15 mg/kg single oral dose, Day 1, 1 h, read-out: Mean Iris-Ciliary Body concentration): 1010 ng/g
concentration at 6 h (Dutch Belted, rabbit, iris-ciliary body, po, 15 mg/kg, DB rabbit, 15 mg/kg single oral dose, Day 1, 6 h, read-out: Mean Iris-Ciliary Body concentration): 528 ng/g
concentration at 24 h (Dutch Belted, rabbit, iris-ciliary body, po, 15 mg/kg, DB rabbit, 15 mg/kg single oral dose, Day 1, 24 h, read-out: Mean Iris-Ciliary Body concentration): 300 ng/g
concentration at 96 h (Dutch Belted, rabbit, iris-ciliary body, po, 15 mg/kg, DB rabbit, 15 mg/kg single oral dose, Day 1, 96 h, read-out: Mean Iris-Ciliary Body concentration): 57.9 ng/g
concentration at 168 h (Dutch Belted, rabbit, iris-ciliary body, po, 15 mg/kg, DB rabbit, 15 mg/kg single oral dose, Day 1, 168 h, read-out: Mean Iris-Ciliary Body concentration): 27.1 ng/g
concentration at 240 h (Dutch Belted, rabbit, iris-ciliary body, po, 15 mg/kg, DB rabbit, 15 mg/kg single oral dose, Day 1, 240 h, read-out: Mean Iris-Ciliary Body concentration): 33.6 ng/g
MRT inf [1]: 81.5 h
MRT last [1]: 76.2 h
half-life [1]: 107 h
Cmax (Dutch Belted, rabbit, iris-ciliary body, po, 15 mg/kg, Iris-Ciliary Body, DB rabbit, 15 mg/kg BID, Day 15, read-out: Cmax): 4920 ng/g
MRT inf [2]: 69 h
MRT last [2]: 46.2 h
half-life [2]: 56 h
Cmax (Dutch Belted, rabbit, iris-ciliary body, po, 15 mg/kg, Iris-Ciliary Body, DB rabbit, 15 mg/kg single dose, Day 1, read-out: Cmax): 1010 ng/g
concentration at 0 h (Dutch Belted, rabbit, plasma, po, 15 mg/kg, DB rabbit, 15 mg/kg BID oral, Day 15, 0 h, read-out: Mean plasma concentration): 55.2 ng/mL
concentration at 1 h (Dutch Belted, rabbit, plasma, po, 15 mg/kg, DB rabbit, 15 mg/kg BID oral, Day 15, 1 h, read-out: Mean plasma concentration): 845 ng/mL
concentration at 6 h (Dutch Belted, rabbit, plasma, po, 15 mg/kg, DB rabbit, 15 mg/kg BID oral, Day 15, 6 h, read-out: Mean plasma concentration): 92.2 ng/mL
concentration at 24 h (Dutch Belted, rabbit, plasma, po, 15 mg/kg, DB rabbit, 15 mg/kg BID oral, Day 15, 24 h, read-out: Mean plasma concentration): 5.6 ng/mL
concentration at 96 h (Dutch Belted, rabbit, plasma, po, 15 mg/kg, DB rabbit, 15 mg/kg BID oral, Day 15, 96 h, read-out: Mean plasma concentration): 3.19 ng/mL
concentration at 1 h (Dutch Belted, rabbit, plasma, po, 15 mg/kg, DB rabbit, 15 mg/kg single oral dose, Day 1, 1 h, read-out: Mean plasma concentration): 318 ng/mL
concentration at 6 h (Dutch Belted, rabbit, plasma, po, 15 mg/kg, DB rabbit, 15 mg/kg single oral dose, Day 1, 6 h, read-out: Mean plasma concentration): 33.7 ng/mL
concentration at 24 h (Dutch Belted, rabbit, plasma, po, 15 mg/kg, DB rabbit, 15 mg/kg single oral dose, Day 1, 24 h, read-out: Mean plasma concentration): 25.4 ng/mL
concentration at 1 h (Dutch Belted, rabbit, retina, oral, 15 mg/kg, DB rabbits, Day 1, 15 mg/kg single dose, 1 hr, read-out: Mean Retina Concentration): 145 ng/g
concentration at 6 h (Dutch Belted, rabbit, retina, oral, 15 mg/kg, DB rabbits, Day 1, 15 mg/kg single dose, 6 hr, read-out: Mean Retina Concentration): 29.6 ng/g
concentration at 24 h (Dutch Belted, rabbit, retina, oral, 15 mg/kg, DB rabbits, Day 1, 15 mg/kg single dose, 24 hr, read-out: Mean Retina Concentration): 24.7 ng/g
concentration at 0 h (Dutch Belted, rabbit, retina, oral, 15 mg/kg, DB rabbits, Day 15, 15 mg/kg BID, 0 hr, read-out: Mean Retina Concentration): 114 ng/g
concentration at 1 h (Dutch Belted, rabbit, retina, oral, 15 mg/kg, DB rabbits, Day 15, 15 mg/kg BID, 1 hr, read-out: Mean Retina Concentration): 576 ng/g
concentration at 6 h (Dutch Belted, rabbit, retina, oral, 15 mg/kg, DB rabbits, Day 15, 15 mg/kg BID, 6 hr, read-out: Mean Retina Concentration): 237 ng/g
concentration at 24 h (Dutch Belted, rabbit, retina, oral, 15 mg/kg, DB rabbits, Day 15, 15 mg/kg BID, 24 hr, read-out: Mean Retina Concentration): 74.3 ng/g
concentration at 96 h (Dutch Belted, rabbit, retina, oral, 15 mg/kg, DB rabbits, Day 15, 15 mg/kg BID, 96 hr, read-out: Mean Retina Concentration): 28.1 ng/g
concentration at 168 h (Dutch Belted, rabbit, retina, oral, 15 mg/kg, DB rabbits, Day 15, 15 mg/kg BID, 168 hr, read-out: Mean Retina Concentration): 36.5 ng/g
concentration at 240 h (Dutch Belted, rabbit, retina, oral, 15 mg/kg, DB rabbits, Day 15, 15 mg/kg BID, 240 hr, read-out: Mean Retina Concentration): 25.3 ng/g
concentration at 0 h (Dutch Belted, rabbit, retina, po, 15 mg/kg, DB rabbit, 15 mg/kg BID oral, Day 15, 0 h, read-out: Mean retina concentration): 114 ng/g
concentration at 1 h (Dutch Belted, rabbit, retina, po, 15 mg/kg, DB rabbit, 15 mg/kg BID oral, Day 15, 1 h, read-out: Mean retina concentration): 576 ng/g
concentration at 6 h (Dutch Belted, rabbit, retina, po, 15 mg/kg, DB rabbit, 15 mg/kg BID oral, Day 15, 6 h, read-out: Mean retina concentration): 237 ng/g
concentration at 24 h (Dutch Belted, rabbit, retina, po, 15 mg/kg, DB rabbit, 15 mg/kg BID oral, Day 15, 24 h, read-out: Mean retina concentration): 74.3 ng/g
concentration at 96 h (Dutch Belted, rabbit, retina, po, 15 mg/kg, DB rabbit, 15 mg/kg BID oral, Day 15, 96 h, read-out: Mean retina concentration): 28.1 ng/g
concentration at 168 h (Dutch Belted, rabbit, retina, po, 15 mg/kg, DB rabbit, 15 mg/kg BID oral, Day 15, 168 h, read-out: Mean retina concentration): 36.5 ng/g
concentration at 240 h (Dutch Belted, rabbit, retina, po, 15 mg/kg, DB rabbit, 15 mg/kg BID oral, Day 15, 240 h, read-out: Mean retina concentration): 25.3 ng/g
concentration at 1 h (Dutch Belted, rabbit, retina, po, 15 mg/kg, DB rabbit, 15 mg/kg single oral dose, Day 1, 1 h, read-out: Mean retina concentration): 145 ng/g
concentration at 6 h (Dutch Belted, rabbit, retina, po, 15 mg/kg, DB rabbit, 15 mg/kg single oral dose, Day 1, 6 h, read-out: Mean retina concentration): 29.6 ng/g
concentration at 24 h (Dutch Belted, rabbit, retina, po, 15 mg/kg, DB rabbit, 15 mg/kg single oral dose, Day 1, 24 h, read-out: Mean retina concentration): 24.7 ng/g
MRT last (Dutch Belted, rabbit, retina, po, 15 mg/kg, retina, DB rabbit, 15 mg/kg BID, Day 15): 71 h
concentration at 0 h (Dutch Belted, rabbit, vitreous humor, po, 15 mg/kg, DB rabbit, 15 mg/kg BID oral, Day 15, 0 h, read-out: Mean Vitreous Humor concentration): 3.27 ng/mL
concentration at 1 h (Dutch Belted, rabbit, vitreous humor, po, 15 mg/kg, DB rabbit, 15 mg/kg BID oral, Day 15, 1 h, read-out: Mean Vitreous Humor concentration): 15.4 ng/mL
concentration at 6 h (Dutch Belted, rabbit, vitreous humor, po, 15 mg/kg, DB rabbit, 15 mg/kg BID oral, Day 15, 6 h, read-out: Mean Vitreous Humor concentration): 6.45 ng/mL
concentration at 1 h (Dutch Belted, rabbit, vitreous humor, po, 15 mg/kg, DB rabbit, 15 mg/kg single oral dose, Day 1, 1 h, read-out: Mean Vitreous Humor concentration): 7.26 ng/mL
concentration at 6 h (Dutch Belted, rabbit, vitreous humor, po, 15 mg/kg, DB rabbit, 15 mg/kg single oral dose, Day 1, 6 h, read-out: Mean Vitreous Humor concentration): 3.66 ng/mL
AUC(0-t) [3]: 64 ng·h/mL
MRT last [3]: 2.23 h
Cmax (Dutch Belted, rabbit, vitreous humor, po, 15 mg/kg, Vitreous Humor, DB rabbit, 15 mg/kg BID, Day 15, read-out: Cmax): 15.4 ng/mL
AUC(0-t) [4]: 30.9 ng·h/mL
MRT last [4]: 2.48 h
Cmax (Dutch Belted, rabbit, vitreous humor, po, 15 mg/kg, Vitreous Humor, DB rabbit, 15 mg/kg single dose, Day 1, read-out: Cmax): 7.26 ng/mL
Tlast (Iris-Ciliary Body, DB rabbit, 15 mg/kg BID, Day 15): 240 h
Tlast (Iris-Ciliary Body, DB rabbit, 15 mg/kg single dose, Day 1): 240 h
Tlast (Vitreous Humor, DB rabbit, 15 mg/kg BID, Day 15): 6 h
Tlast (Vitreous Humor, DB rabbit, 15 mg/kg single dose, Day 1): 6 h
AUClast [5]: 3990 ng·h/mL
Cmax [5]: 845 ng/mL
MRTlast [5]: 6.51 h
Tlast [5]: 96 h
AUClast [6]: 1570 ng·h/mL
Cmax [6]: 318 ng/mL
MRTlast [6]: 5.58 h
Tlast [6]: 24 h
C-RPE drug concentration at least 10 days following the last oral administration (rabbit, 15 mg/kg BID): 340 ng/mL
Cmax [7]: 576 ng/m
Tlast [7]: 240 h
Cmax [8]: 145 ng/m
MRTlast [8]: 7.83 h
Tlast [8]: 24 h
